We go through 18 compounds from patent publication US20240109917A1 (ACTELION PHARMACEUTICALS LTD, priority 2020, published 2024).

The target in experiment [1] is His6-TEV-PDGFRβ (557-1016) (Homo sapiens (Human), UniProt P09619). As to the kind of experiment: PDGFRβ HTRF Assay. As to conditions: read-out: PDGFR HTRF IC50. It is filed as biochemical. An outline of the steps: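 HTRF KinEASE-TK readout (665/620 nm ratio) of TK-biotin substrate phosphorylation by His-tagged PDGFRβ kinase domain. Enzyme and inhibitor preincubated 30 min, then ATP/substrate added for 3 h at room temperature before 60 min EDTA quench/detection.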
For orientation: In TR-FRET formats the signal depends on donor and acceptor labels being close together.

Experiment [2] addresses Tb-labeled inactive PDGFRβ (Homo sapiens (Human), UniProt P09619). Nature of the experiment: PDGFRβ LanthaScreen Assay. In kind it is binding. As to conditions: read-out: PDGFR Lantha IC50.
Experiment [3] deals with VEGFR2, unphosphorylated (Homo sapiens (Human), UniProt P35968). As to the kind of experiment: VEGFR ADP GLO Assay. It is filed as biochemical.

Molecules are shown by their SMILES.

Sequence of Tb-labeled inactive PDGFRβ (P09619 33-1106): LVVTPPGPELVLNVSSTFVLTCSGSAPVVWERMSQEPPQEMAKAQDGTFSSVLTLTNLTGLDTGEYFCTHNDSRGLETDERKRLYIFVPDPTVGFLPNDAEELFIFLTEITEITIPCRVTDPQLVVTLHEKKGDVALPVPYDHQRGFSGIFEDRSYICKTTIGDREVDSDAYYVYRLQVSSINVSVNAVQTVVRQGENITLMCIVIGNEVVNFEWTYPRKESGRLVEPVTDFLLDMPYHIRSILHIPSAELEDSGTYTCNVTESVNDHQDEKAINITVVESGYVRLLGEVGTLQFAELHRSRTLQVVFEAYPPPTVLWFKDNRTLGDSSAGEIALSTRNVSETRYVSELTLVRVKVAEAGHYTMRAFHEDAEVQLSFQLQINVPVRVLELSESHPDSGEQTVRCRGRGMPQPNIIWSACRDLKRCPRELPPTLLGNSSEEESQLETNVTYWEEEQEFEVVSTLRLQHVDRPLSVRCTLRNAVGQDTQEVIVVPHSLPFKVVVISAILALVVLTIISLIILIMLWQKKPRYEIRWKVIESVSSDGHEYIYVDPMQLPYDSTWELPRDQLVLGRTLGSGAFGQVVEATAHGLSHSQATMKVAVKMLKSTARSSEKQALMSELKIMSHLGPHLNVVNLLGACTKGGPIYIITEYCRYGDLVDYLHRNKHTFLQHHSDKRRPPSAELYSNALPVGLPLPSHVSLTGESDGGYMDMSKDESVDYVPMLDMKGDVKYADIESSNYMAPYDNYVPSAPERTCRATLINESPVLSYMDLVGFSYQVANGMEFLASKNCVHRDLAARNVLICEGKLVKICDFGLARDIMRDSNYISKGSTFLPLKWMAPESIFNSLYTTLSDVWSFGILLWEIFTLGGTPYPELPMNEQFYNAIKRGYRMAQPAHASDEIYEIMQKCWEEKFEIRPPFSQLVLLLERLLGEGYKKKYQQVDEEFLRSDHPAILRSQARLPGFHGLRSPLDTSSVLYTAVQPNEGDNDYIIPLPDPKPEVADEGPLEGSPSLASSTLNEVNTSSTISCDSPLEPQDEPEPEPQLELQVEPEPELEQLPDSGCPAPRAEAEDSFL
Sequence of VEGFR2, unphosphorylated (P35968 20-1356): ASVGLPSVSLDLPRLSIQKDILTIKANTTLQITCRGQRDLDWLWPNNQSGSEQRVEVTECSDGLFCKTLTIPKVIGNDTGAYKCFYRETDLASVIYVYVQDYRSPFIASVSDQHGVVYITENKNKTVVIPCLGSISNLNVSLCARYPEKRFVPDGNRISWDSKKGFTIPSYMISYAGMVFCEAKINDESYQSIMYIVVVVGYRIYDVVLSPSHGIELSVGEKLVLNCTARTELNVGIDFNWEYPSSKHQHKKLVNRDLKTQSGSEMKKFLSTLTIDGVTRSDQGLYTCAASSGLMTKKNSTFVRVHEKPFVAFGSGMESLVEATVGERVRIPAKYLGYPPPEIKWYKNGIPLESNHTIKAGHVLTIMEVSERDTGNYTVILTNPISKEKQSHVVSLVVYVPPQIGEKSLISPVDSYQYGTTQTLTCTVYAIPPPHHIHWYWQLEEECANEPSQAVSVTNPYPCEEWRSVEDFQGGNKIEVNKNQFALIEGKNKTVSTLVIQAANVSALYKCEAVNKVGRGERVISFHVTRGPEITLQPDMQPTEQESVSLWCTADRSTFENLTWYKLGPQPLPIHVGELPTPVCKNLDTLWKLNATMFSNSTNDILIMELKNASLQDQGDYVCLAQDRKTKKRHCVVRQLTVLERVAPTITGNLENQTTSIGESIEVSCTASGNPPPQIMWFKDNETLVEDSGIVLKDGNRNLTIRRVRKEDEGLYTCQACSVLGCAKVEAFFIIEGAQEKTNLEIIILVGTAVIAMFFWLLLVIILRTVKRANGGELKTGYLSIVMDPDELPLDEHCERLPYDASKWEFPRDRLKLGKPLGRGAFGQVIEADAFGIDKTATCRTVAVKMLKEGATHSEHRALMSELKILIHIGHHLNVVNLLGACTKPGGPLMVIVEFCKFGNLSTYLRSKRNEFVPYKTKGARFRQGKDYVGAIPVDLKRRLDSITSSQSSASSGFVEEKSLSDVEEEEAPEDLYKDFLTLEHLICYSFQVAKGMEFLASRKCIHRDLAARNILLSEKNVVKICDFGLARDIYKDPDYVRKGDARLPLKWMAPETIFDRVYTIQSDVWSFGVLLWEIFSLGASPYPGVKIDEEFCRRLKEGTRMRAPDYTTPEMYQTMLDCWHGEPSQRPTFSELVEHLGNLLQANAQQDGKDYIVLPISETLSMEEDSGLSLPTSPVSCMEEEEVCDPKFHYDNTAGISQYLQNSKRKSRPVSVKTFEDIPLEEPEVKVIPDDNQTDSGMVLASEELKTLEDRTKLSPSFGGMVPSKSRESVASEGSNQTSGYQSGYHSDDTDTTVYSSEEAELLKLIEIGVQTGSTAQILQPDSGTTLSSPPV
Sequence of His6-TEV-PDGFRβ (557-1016) (P09619 557-1016): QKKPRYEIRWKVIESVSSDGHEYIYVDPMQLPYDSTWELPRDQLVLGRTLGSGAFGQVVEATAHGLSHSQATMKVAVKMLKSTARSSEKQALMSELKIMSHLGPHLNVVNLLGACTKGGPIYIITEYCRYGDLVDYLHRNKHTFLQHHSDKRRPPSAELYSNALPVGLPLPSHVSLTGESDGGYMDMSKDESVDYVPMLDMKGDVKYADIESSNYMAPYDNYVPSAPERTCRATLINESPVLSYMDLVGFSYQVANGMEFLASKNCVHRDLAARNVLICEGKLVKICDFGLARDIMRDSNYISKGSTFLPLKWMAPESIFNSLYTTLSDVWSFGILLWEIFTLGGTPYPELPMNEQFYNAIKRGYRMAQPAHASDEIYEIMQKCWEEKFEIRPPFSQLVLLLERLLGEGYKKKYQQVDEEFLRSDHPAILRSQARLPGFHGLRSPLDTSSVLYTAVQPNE

Take `CCn1nccc1-c1cn2ncc(C(=O)Nc3cc(NC(=O)CN4CC(C)(C)C4)cnc3C)c2s1` [Example 388, N-(5-(2-(3,3-dimethylazetidin-1-yl)acetamido)-2-methylpyridin-3-yl)-2-(1-ethyl-1H-pyrazol-5-yl)pyrazolo[5,1-b]thiazole-7-carboxamide]: the IC50 (in general, the concentration needed to halve the response being measured) in experiment [1] was 0.5 nM; in experiment [2] it was 7.4 nM; in experiment [3] it was greater than 7500 nM.

`Cc1cnn(C)c1-c1cn2ncc(C(=O)Nc3cc(NC(=O)CN4CC(C)(C)C4)cnc3C)c2s1` [Example 389, 2-(1,4-dimethyl-1H-pyrazol-5-yl)-N-(5-(2-(3,3-dimethylazetidin-1-yl)acetamido)-2-methylpyridin-3-yl)pyrazolo[5,1-b]thiazole-7-carboxamide]: the figures for the 50% inhibitory concentration (IC50) in experiment [1], in experiment [2] and in experiment [3] were 0.6 nM, 7.5 nM and greater than 7500 nM, respectively.

For the compound `Cc1ncc(NC(=O)CN2CC(C)(C)C2)cc1NC(=O)c1cnn2cc(-c3cccnc3C)sc12` [Example 390, N-(5-(2-(3,3-dimethylazetidin-1-yl)acetamido)-2-methylpyridin-3-yl)-2-(2-methylpyridin-3-yl)pyrazolo[5,1-b]thiazole-7-carboxamide], the half-inhibitory concentration (IC50) in experiment [1] was 0.6 nM; in experiment [2] it was 10.1 nM; in experiment [3], greater than 7500 nM.

With `CCc1ncccc1-c1cn2ncc(C(=O)Nc3cc(NC(=O)CN4CC(C)(C)C4)cnc3C)c2s1` [Example 391, N-(5-(2-(3,3-dimethylazetidin-1-yl)acetamido)-2-methylpyridin-3-yl)-2-(2-ethylpyridin-3-yl)pyrazolo[5,1-b]thiazole-7-carboxamide], the IC50 in experiment [1] is 0.9 nM; in experiment [2], 18.4 nM; in experiment [3] it was greater than 7500 nM.

For the compound `COc1ncc(-c2cn3ncc(C(=O)Nc4cc(NC(=O)CN5CC(C)(C)C5)cnc4C)c3s2)c(OC)n1` [Example 392, 2-(2,4-dimethoxypyrimidin-5-yl)-N-(5-(2-(3,3-dimethylazetidin-1-yl)acetamido)-2-methylpyridin-3-yl)pyrazolo[5,1-b]thiazole-7-carboxamide], the 50% inhibitory concentration (IC50) was determined as 0.5 nM in experiment [1], 4.6 nM in experiment [2] and 7440 nM in experiment [3].

On to `COc1cc(-c2cn3ncc(C(=O)Nc4cc(NC(=O)CN5CC(C)(C)C5)cnc4C)c3s2)c(OC)nn1` [Example 393, 2-(3,6-dimethoxypyridazin-4-yl)-N-(5-(2-(3,3-dimethylazetidin-1-1)acetamido)-2-methylpyridin-3-yl)pyrazolo[5,1-b]thiazole-7-carboxamide], for which the results for the IC50 in experiment [1], in experiment [2] and in experiment [3] were 0.7 nM, 5.1 nM and greater than 7500 nM, respectively.

As for `COc1cccc(-c2cn3ncc(C(=O)Nc4cc(NC(=O)CN5CC(C)(C)C5)cnc4C)c3s2)n1` [Example 394, N-(5-(2-(3,3-dimethylazetidin-1-yl)acetamido)-2-methylpyridin-3-yl)-2-(6-methoxypyridin-2-yl)pyrazolo[5,1-b]thiazole-7-carboxamide], the half-maximal inhibitory concentration (IC50) is 0.2 nM in experiment [1], 1.2 nM in experiment [2] and greater than 7500 nM in experiment [3].

Regarding `COc1ccc(-c2cn3ncc(C(=O)Nc4cc(NC(=O)CN5CC(C)(C)C5)cnc4C)c3s2)cn1` [Example 395, N-(5-(2-(3,3-dimethylazetidin-1-yl)acetamido)-2-methylpyridin-3-yl)-2-(6-methoxypyridin-3-yl)pyrazolo[5,1-b]thiazole-7-carboxamide], the half-inhibitory concentration (IC50) is 0.4 nM in experiment [1], 7.3 nM in experiment [2] and greater than 7500 nM in experiment [3].

For the compound `COc1ncccc1-c1cn2ncc(C(=O)Nc3cc(NC(=O)CN4CC(C)(OC)C4)cnc3C)c2s1` [Example 396, N-(5-(2-(3-methoxy-3-methylazetidin-1-yl)acetamido)-2-methylpyridin-3-yl)-2-(2-methoxypyridin-3-yl)pyrazolo[5,1-b]thiazole-7-carboxamide], the half-inhibitory concentration (IC50) in experiment [1] is 0.3 nM; in experiment [2], 1.8 nM; in experiment [3], greater than 7500 nM.

For `COc1ncccc1-c1cn2ncc(C(=O)Nc3cc(NC(=O)CN4CCC4)cnc3C)c2s1` [Example 397, N-(5-(2-(azetidin-1-yl)acetamido)-2-methylpyridin-3-yl)-2-(2-methoxypyridin-3-yl)pyrazolo[5,1-b]thiazole-7-carboxamide], the IC50 is 0.8 nM in experiment [1], 22.1 nM in experiment [2] and greater than 7500 nM in experiment [3].

`Cc1ncc(NC(=O)CN2CC(C)(C)C2)cc1NC(=O)c1cnn2cc(-c3cncnc3C)sc12` [Example 398, N-(5-(2-(3,3-dimethylazetidin-1-yl)acetamido)-2-methylpyridin-3-yl)-2-(4-methylpyrimidin-5-yl)pyrazolo[5,1-b]thiazole-7-carboxamide]: the IC50 is 6.8 nM in experiment [1], 181 nM in experiment [2] and greater than 7500 nM in experiment [3].

Turning to `COc1cnccc1-c1cn2ncc(C(=O)Nc3cc(NC(=O)CN4CC(C)(C)C4)cnc3C)c2s1` [Example 399, N-(5-(2-(3,3-dimethylazetidin-1-yl)acetamido)-2-methylpyridin-3-yl)-2-(3-methoxypyridin-4-yl)pyrazolo[5,1-b]thiazole-7-carboxamide], the half-maximal inhibitory concentration (IC50) amounted to 0.2 nM in experiment [1], 1.1 nM in experiment [2] and 4770 nM in experiment [3].

Consider `COc1ncccc1-c1cn2ncc(C(=O)Nc3cc(NC(=O)CN4CC(F)C4)cnc3C)c2s1` [Example 402, N-(5-(2-(3-fluoroazetidin-1-yl)acetamido)-2-methylpyridin-3-yl)-2-(2-methoxypyridin-3-yl)pyrazolo[5,1-b]thiazole-7-carboxamide], for which the half-maximal inhibitory concentration (IC50) was 0.3 nM in experiment [1], 2.7 nM in experiment [2] and greater than 7500 nM in experiment [3].

For the compound `COc1ncccc1-c1cn2ncc(C(=O)Nc3cc(NC(=O)CN4CC5(CCOCC5)C4)cnc3C)c2s1` [Example 403, N-(5-(2-(7-oxa-2-azaspiro[3.5]nonan-2-yl)acetamido)-2-methylpyridin-3-yl)-2-(2-methoxypyridin-3-yl)pyrazolo[5,1-b]thiazole-7-carboxamide carboxamide], the values for the IC50 in experiment [1], in experiment [2] and in experiment [3] were 0.2 nM, 1.3 nM and greater than 7500 nM, respectively.

Consider `COc1ncccc1-c1cn2ncc(C(=O)Nc3cc(NC(=O)CN4CC5(COC5)C4)cnc3C)c2s1` [Example 404, N-(5-(2-(2-oxa-6-azaspiro[3.3]heptan-6-yl)acetamido)-2-methylpyridin-3-yl)-2-(2-methoxypyridin-3-yl)pyrazolo[5,1-b]thiazole-7-carboxamide], for which the figures for the IC50 in experiment [1], in experiment [2] and in experiment [3] were 0.3 nM, 4.9 nM and greater than 7500 nM, respectively.

On to `COc1ncccc1-c1cn2ncc(C(=O)Nc3cc(NC(=O)CN4CC(C)C4)cnc3C)c2s1` [Example 405, 2-(2-methoxypyridin-3-yl)-N-(2-methyl-5-(2-(3-methylazetidin-1-yl)acetamido)pyridin-3-yl)pyrazolo[5,1-b]thiazole-7-carboxamide], for which the 50% inhibitory concentration (IC50) in experiment [1] amounted to 0.2 nM; in experiment [2] it was 3.9 nM; in experiment [3] it was 6660 nM.

For `Cc1ncc(NC(=O)CN2CC3(CCOCC3)C2)cc1NC(=O)c1cnn2cc(-c3cnn4c3OCCC4)sc12` [Example 406, N-(5-(2-(7-oxa-2-azaspiro[3.5]nonan-2-yl)acetamido)-2-methylpyridin-3-yl)-2-(6,7-dihydro-5H-pyrazolo[5,1-b][1,3]oxazin-3-yl)pyrazolo[5,1-b]thiazole-7-carboxamide], the values for the IC50 in experiment [1], in experiment [2] and in experiment [3] were 0.4 nM, 2.3 nM and greater than 7500 nM, respectively.

As to `Cc1ncc(NC(=O)CN2CC(C)C2)cc1NC(=O)c1cnn2cc(-c3cnn4c3OCCC4)sc12` [Example 407, 2-(6,7-dihydro-5H-pyrazolo[5,1-b][1,3]oxazin-3-yl)-N-(2-methyl-5-(2-(3-methylazetidin-1-yl)acetamido)pyridin-3-yl)pyrazolo[5,1-b]thiazole-7-carboxamide], the IC50 was 0.3 nM in experiment [1], 6.2 nM in experiment [2] and greater than 7500 nM in experiment [3].
